From patent US9695162B2, “Sweet flavor modifier” (SENOMYX, INC., priority 2013, dated 2017)

Columns and labels:
[1] = test system: human panelists (sweet taste); test: Paired comparison taste test: enhancement of sucrose at pH 7.1 (6% sucrose + compound vs. 10%, 11% or 12% sucrose); format: in vivo
Protocol: (§1) Experiment 1: Sweet Flavor and Sweet Flavor Enhancement Measurement Using Human Panelists Conducting a Paired Comparison Test
(§2) Test samples containing experimental compounds were presented in pairs to the panelist and they were asked to determine which of the sample is sweeter. […] A group of 10-16 or more panelists participated in each test. Subjects refrained from eating or drinking (except water) for at least 1 hour prior to the test. Subjects rinsed with water several times to clean the mouth.
(§3) Taste tests were performed with sucrose or HFCS as the sweetener in the presence or absence of compound. A 0.2% stock solution of compound in water with sodium bicarbonate was prepared and then this stock solution was diluted in the final sample to achieve the targeted final concentration of compound. For the sample evaluated at pH 2.8 the pH of the solution is decreased to about pH 2.8 using citric acid. Taste samples were also prepared in a low sodium phosphate buffer (pH 7.1; “LSB”) lacking sucrose or HFCS to evaluate the taste of the compound alone. Low sodium phosphate buffer consists of 0.3 mM KCl, 0.5 mM Na2HPO4, and 0.175 mM KH2PO4. Sample volumes are usually 20 ml.
(§4) In one paired comparison test, the panelist was presented with two different samples and asked to identify the sample which is sweeter. The samples within a paired comparison test were presented in a randomized, counterbalanced order. Panelists had up to a 1 minute delay between taste tests to clear the mouth of any tastes.
(§5) Binomial probability tables were used to determine the probability of the correct number of responses occurring for each test at alpha=0.05

[2] = test system: human panelists (sweet taste); test: Paired comparison taste test: enhancement of sucrose at pH 2.8 (6% sucrose + compound vs. 10%, 11% or 12% sucrose); format: in vivo
Protocol: as §1, §2, §3, §4, §5

[3] = test system: human panelists (sweet taste); test: Paired comparison taste test: enhancement of HFCS at pH 2.8 (6% HFCS + compound vs. 8% or 9% HFCS); format: in vivo
Protocol: as §1, §2, §3
In one paired comparison test, the panelist was presented with two different samples and asked to identify the sample which is sweeter. […]

[4] = test system: human panelists (sweet taste); test: Sweetness threshold: paired comparison taste test, LSB + compound vs. 1% sucrose; format: in vivo
Protocol: as §1, §2, §3, §4, §5

[5] = 10% Sucrose vs 6% Sucrose + 10 ppm Compound A1, n = 32 (16 panelists × 2 reps)
[6] = 11% Sucrose vs 6% Sucrose + 5 ppm Compound A1, n = 33
[7] = 1% Sucrose vs LSB + 25 ppm Compound A1, n = 26 (13 panelists × 2 reps)

| SMILES | melting point | Sample selected as sweeter by panelists (Total) [1, 5] | Sample selected as sweeter by panelists (Total) [2, 6] | Sample selected as sweeter by panelists (Total) [4, 7] | further results |
| --- | --- | --- | --- | --- | --- |
| CC(C)(COc1cccc2c1C(N)=NS(=O)(=O)N2)NC(=O)c1ccnc(-n2ccnc2N)c1.Cl | 235 to 237 °C (dec.) |  |  |  |  |
| CC(C)(COc1cccc2c1C(N)=NS(=O)(=O)N2)NC(=O)c1ccncc1 [Compound A1, N-(1-(4-amino-2,2-dioxido-1H-benzo[c][1,2,6]thiadiazin-5-yloxy)-2-methylpropan-2-yl)isonicotinamide] |  | 18 | 12 | 12 | Sucrose solution of equivalent sweetness (% sucrose) ([1]; 10 ppm compound in 6% sucrose): ~10%; Sucrose solution of equivalent sweetness (% sucrose) ([2]; 5 ppm compound in 6% sucrose): ~11%; HFCS solution of equivalent sweetness (% High Fructose Corn Syrup) ([3]; 5 ppm compound in 6% High Fructose Corn Syrup): ~9%; Sample selected as sweeter by panelists (Total) ([3]; 9% High Fructose Corn Syrup vs 6% High Fructose Corn Syrup + 20 ppm Compound A1, n = 32 (16 panelists × 2 reps)): 12 |
| CC(C)(COc1cccc2c1C(N)=NS(=O)(=O)N2)NC(=O)c1ccnc(-n2cnc(CO)c2)c1 [Example 36, N-(1-((4-amino-2,2-dioxido-1H-benzo[c][1,2,6]thiadiazin-5-yl)oxy)-2-methylpropan-2-yl)-2-(4-(hydroxymethyl)-1H-imidazol-1-yl)isonicotinamide] | > 200 °C |  |  |  |  |
| CC(C)(COc1cccc2c1C(N)=NS(=O)(=O)N2)NC(=O)c1ccnc(-n2cnc(C(=O)O)c2)c1 [Example 37, 1-(4-((1-((4-amino-2,2-dioxido-1H-benzo[c][1,2,6]thiadiazin-5-yl)oxy)-2-methylpropan-2-yl)carbamoyl)pyridine-2yl)1H-imidazole-4-carboxylic acid] | > 200 °C |  |  |  |  |
| OC[C@H]1O[C@@](CO)(O[C@H]2O[C@H](CO)[C@@H](O)[C@H](O)[C@H]2O)[C@@H](O)[C@@H]1O [Sucrose, sucrose, reference compound] |  | 14 | 21 | 14 | Sample selected as sweeter by panelists (Total) ([1]; 11% Sucrose vs 6% Sucrose + 5 ppm Compound A6, n = 48 (16 panelists × 3 reps)): 24; Sample selected as sweeter by panelists (Total) ([2]; 12% Sucrose vs 6% Sucrose + 5 ppm Compound A6, n = 48 (16 panelists × 3 reps)): 22; Sample selected as sweeter by panelists (Total) ([4]; 1% Sucrose vs LSB + 10 ppm Compound A6, n = 30 (10 panelists × 3 reps)): 18 |
